One test deals with primary osteoarthritis. The following applies: guinea pig model of primary osteoarthritis; cited from earlier work.
The test system of test [1] is osteoarthritis in the SI joint. The following applies: one donkey, treated in line with the horses. How it is done:
(§1) The following experiments were performed during November 2015-May 2016. In various veterinarian locations in the Netherlands the animals were treated or occasionally the animals were treated on a farm in a stable.
One donkey was treated in line with the horses above.

The next test has as its system osteoarthritis. The following applies: 1 bull, 6 years, 0.2 mg/kg intravenous. The method, then:
as §1

Test [2] concerns osteoarthritis or similar complaints. As to conditions: 24 dogs, 5-15 years, 0.20 mg/kg intravenous during about 15 min. How it is done:
as §1
(§2) Typical symptoms for dogs and other animals mentioned in the description are lameness, stiffness, especially in the morning, after a stroll and when starting, moving with relatively short steps, a preference for lying down, no stamina, various difficulties/limitations, such as in rising or lying down, in keeping up walking pace, rising a leg, jumping on a couch, tail between the legs and squealing from pain.

For test [3] the test system is unchanged. How it is done:
as §1
For cats it is preferred to provide the dosage in a subcutaneous manner.

For test [4], the system named is various disorders and disease. The test can be described thus: Present bisphosphonates tested on various naturally occurring disorders and diseases in mammals. The following applies: dog, in vivo. Also on record: species or system mammals (horses, donkeys, cows, dogs and cats).
Description: A repetition may be given after 4-12 months. […] In general it is noted that timing of potential benefit of antiresorptives in OA might be important. The greatest benefit in the prior art is typically seen very early in the disease. So to maintain the normal attitude mode, typically once per 1-12 month, preferably once per 2-6 months, such as once per 3-5 month, or put different 1-6 times per year, preferably 2-6 times per year, such as 3-4 times per year.
For better understanding of these diseases and disorders, the following section is added, such as to categorize these.
as §2

In the next test the test system is hip osteoarthritis. The following applies: oral 35 mg once a week, 2 years; cited from earlier work.
In a further test the test system is knee osteoarthritis. The following applies: 2-year period; cited from earlier work.

`NCCCC(O)(P(=O)(O)O)P(=O)(O)O.O.O.O` [Alendronate, [4-amino-1-hydroxy-1-(hydroxy-oxido-phosphoryl)-butyl]phosphonic acid trihydrate]: in the test on primary osteoarthritis, the “effect on disease progression” value is listed as “Risedronate but not Alendronate slows disease progression”. Also, the “result of treatment in donkey” value in test [1] is “results here were fine”. Besides, the “bull free of complaints” value with osteoarthritis is given as “free of complaints within a month”. Besides, the “complaints of dogs after treatment” value in test [2] is given as “All dogs have significantly less complaints or were free of complaints within a few weeks”. For the same molecule, in test [3] (eight cats, 12-18 years, 0.2 mg/kg subcutaneous or intravenous, one cat still had complaints (other medicines withdrawn)), the “cats free of complaints” value was “Seven cats were free of complaints within a few weeks”. In addition, the “cats showing a good response (substantially free of complaints)” value in test [3] (later experiments on more cats) is given as “more than 75%”. Moreover, in test [4], the “outcome of testing on various disorders and disease” value (from here on “outcome of testing”) is “tested on various disorders and disease with success”. Further, in the test with hip osteoarthritis, the “clinical efficacy on pain” value was “had clinical efficacy of pain reduction” and the “effect on structural progression of hip osteoarthritis” value is listed as “failed to show preventive effects for structural progression of hip osteoarthritis”.
With `CCCCCN(C)CCC(O)(P(=O)(O)O)P(=O)(O)O` [Ibandronate], the “outcome of testing” value in test [4] is “tested on various disorders and disease with success”.
Same read-out and setting: the entry for `NCCCCCC(O)(P(=O)(O)O)P(=O)(O)O` [Nerodronate] is “tested on various disorders and disease with success”.
The same measure, in the same setting: the entry for `CN(C)CCC(O)(P(=O)(O)O)P(=O)(O)O` [Olpadronate] is “tested on various disorders and disease with success”; for `NCCC(O)(P(=O)(O)O)P(=O)(O)O` [Pamidronate] it is “tested on various disorders and disease with success”.
Turning to `O=P(O)(O)C(O)(Cc1cccnc1)P(=O)(O)O` [Risedronate], in the test with primary osteoarthritis, the “effect on disease progression” value is recorded as “slows disease progression”. For the same molecule, the “symptom improvement or progression of radiographic osteoarthritis vs placebo” value in the test with knee osteoarthritis is given as “no significant differences in symptom improvement or progression of radiographic osteoarthritis”. Also, in test [4], the “outcome of testing” value is “tested on various disorders and disease with success”.
With `O=P(O)(O)C(O)(Cn1ccnc1)P(=O)(O)O` [Zoledronate], the “outcome of testing” value in test [4] was “tested on various disorders and disease with success”.

Source of the values: patent US20210008083A1, “USE OF A BISPHOSPHONATE SALT IN A MEDICAMENT FOR A NATURALLY OCCURRING DISEASE/DISORDER IN A MAMMAL” (Ostafit B.V., priority 2016, published 2021).
